# Assay results from patent US6740680B1, “Pharmaceutical compositions to tetrac and methods of use thereof” (Becton Pharma, Inc., priority 1999, dated 2004).
# Columns and labels:
# [1] = test system: α-MHC mRNA; test: Northern blot, α-MHC mRNA in heart; format: in vivo, rat; conditions: infused rats, adjusted group mean at the mean Ln (TSH) concentration
# Description: (§1) Seventy-nine male SIVZ rats were purchased from the breeder (Institut für Labortierkunde des Universität Zürich, Zürich, Switzerland). They were rendered hypothyroid by a single injection of [^131I]Na (100 μCi/rat) and before and throughout the experiment 0.02% 2-mercapto-1-methylimidazol (MMI) was added to drinking water. In order to have an euthyroid control group of similar weight and identical age, 10 rats received only MMI in the drinking water and 2 weeks before implanting the minipumps, MMI was withdrawn. Osmotic minipumps (secretion rate 0.25 μl/hour, duration 14 days) were implanted intraperitoneally (i.p.) 2 months after the injection of [^131I]Na. The minipumps were filled with T4 or Tetrac dissolved in 0.05 N NaOH, 2% BSA and 100,000 cpm [^125I]T4 or [^125I]Tetrac as control of their secretion rates. The infusion lasted 13 days. 0, 1.5, 4.5, 13.5 and 40.5 nmol Tetrac/day/100 g or 0.5, 1.5, 4.5 and 13.5 nmol T4/day/100 g bodyweight (BW) (n=4/dose) were infused. An euthyroid control group was included. The animals were weighed every 2 days. Rats were sacrificed by decapitation and blood was collected and stored at −200° C. until use. Tissues (liver, heart, brown adipose tissue, cerebral cortex and pituitary) were removed rapidly, frozen in liquid nitrogen and stored at −700° C. until use.
# Total RNA extraction and Northern Blot hybridization Total RNA was extracted with the method of Chomczynski and Sacchi (Chomczynski, P. and Sacchi, N. Anal. Biochem. (1987) 162: 156-159). […]
# (§2) The amount of labeled mRNA was quantified by scanning laser densitometry (Phosphorimager, Molecular Dynamics; Sunnyvale, USA). Variations in RNA loading and membrane transfer were corrected by densitometric quantification of a negative photograph of 28S and 18S ribosomal RNA bands from ethidium bromide stained RNA gels. […]
# [2] = target: T1, Monodeiodinase type 2 (Rattus norvegicus, UniProt P70551); test: Addition of Tetrac to monodeiodinase type 2 assay with microsomal protein from brain cortex; format: biochemical; conditions: 1 fmol Tetrac/μg protein added
# T1 construct: monodeiodinase type 2 assay using microsomol protein from brain cortex; from tissue; host or cells: brain cortex microsomal protein
# T1 sequence (P70551 1-266): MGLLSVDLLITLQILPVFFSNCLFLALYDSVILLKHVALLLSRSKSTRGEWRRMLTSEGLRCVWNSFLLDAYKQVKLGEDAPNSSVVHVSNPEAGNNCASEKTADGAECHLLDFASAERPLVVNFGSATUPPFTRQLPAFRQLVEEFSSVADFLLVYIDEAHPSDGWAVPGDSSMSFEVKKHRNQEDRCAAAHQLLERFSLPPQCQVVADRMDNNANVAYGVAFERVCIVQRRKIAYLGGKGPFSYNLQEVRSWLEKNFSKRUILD
# Description: Monodeiodinase type 1 and 2 activities. Monodeiodinase type 1 and type 2 activities were determined in tissue homogenates by measuring the release of radioiodide from [^125I]rT3 according to the method of Leonard and Rosenberg (Leonard, J. L. et al. Endocrinology (1980) 106: 444-451).
# Monodeiodinase type 1 activity was measured in liver homogenates using 1 μM rT3 and 1 mM DTT with 10 min of incubation, whereas for heart, 0.01 μM rT3 and 10 mM DTT with 1 hour of incubation. Monodeiodinase type 2 activity was measured in brown adipose tissue (BAT) and cerebral cortex using 1 nM rT3, 10 mM DTT and 1 mM propylthiouracil (PTU) with 1 hour of incubation. Protein concentrations were measured by the method of Bradford (Bio-Rad Laboratories GmbH, Munich, Germany) with bovine gammaglobulin as the protein standard. In order to study the effect of circulating Tetrac on the enzyme activities, 2 rats were injected intraperitoneally with 10 μCi ^125I Tetrac and killed 6 hours later. The tissue homogenates were extracted with 3 volumes of ethanol-NH3 (97:3). After 10 minutes centrifugation at 15,000 g, the supernatant was vacuum dried and applied to TLC (Merck 254, Toluol, acetic acid, water: 2:2:1). […] The calculated tissue concentrations were: liver: 1.9, heart: 2.29 and brain cortex: 0.47 fluol Tetrac/μg protein. […]
# [3] = Tissue concentrations of Tetrac after 125I Tetrac injection; format: in vivo, rat; conditions: for Calculated tissue concentration of Tetrac: calculated with highest serum Tetrac level (406 pmol/ml)
# Description: Monodeiodinase type 1 activity was measured in liver homogenates using 1 μM rT3 and 1 mM DTT with 10 min of incubation, whereas for heart, 0.01 μM rT3 and 10 mM DTT with 1 hour of incubation. Monodeiodinase type 2 activity was measured in brown adipose tissue (BAT) and cerebral cortex using 1 nM rT3, 10 mM DTT and 1 mM propylthiouracil (PTU) with 1 hour of incubation. Protein concentrations were measured by the method of Bradford (Bio-Rad Laboratories GmbH, Munich, Germany) with bovine gammaglobulin as the protein standard. In order to study the effect of circulating Tetrac on the enzyme activities, 2 rats were injected intraperitoneally with 10 μCi ^125I Tetrac and killed 6 hours later. The tissue homogenates were extracted with 3 volumes of ethanol-NH3 (97:3). After 10 minutes centrifugation at 15,000 g, the supernatant was vacuum dried and applied to TLC (Merck 254, Toluol, acetic acid, water: 2:2:1). In order to calculate the tissue concentrations, the highest serum Tetrac levels were used (406 pmol/ml). The calculated tissue concentrations were: liver: 1.9, heart: 2.29 and brain cortex: 0.47 fluol Tetrac/μg protein.
# [4] = test system: monodeiodinase type 2 mRNA; test: Northern blot, monodeiodinase type 2 mRNA in pituitary; format: in vivo, rat; conditions: FIG. 5b, compared with T4, p=0.001
# Description: as §1, with “Rats were sacrificed by decapitation and blood was collected and stored at −200° C. until use. Tissues (liver, heart, brown adipose tissue, cerebral cortex and pituitary) were removed rapidly, frozen in liquid nitrogen and stored at −700° C. until use.” left out
# as §2
# [5] = test system: SERCA 2a mRNA; test: Northern blot, SERCA 2a mRNA in heart; format: in vivo, rat; conditions: FIG. 2b, compared to T4, p<0.001
# Description: as §1, with “Rats were sacrificed by decapitation and blood was collected and stored at −200° C. until use. Tissues (liver, heart, brown adipose tissue, cerebral cortex and pituitary) were removed rapidly, frozen in liquid nitrogen and stored at −700° C. until use.” left out
# as §2
smiles,measurement,setting,value
"O=C(O)Cc1cc(I)c(Oc2cc(I)c(O)c(I)c2)c(I)c1 [Tetrac, 3,3′,5,5′-tetraiodothyroacetic acid]","α-MHC mRNA, adjusted mean",[1],5.3 arbitrary units
same,"Monodeiodinase type 2 activity, % of the full activity",[2],90.5%
same,Concentration of Tetrac in brain cortex homogenates,[3]; brain cortex homogenates,less than 1 fmol/μg protein
same,Calculated tissue concentration of Tetrac,[3]; brain cortex,0.47 fluol Tetrac/μg protein
same,Calculated tissue concentration of Tetrac,[3]; heart,2.29 fluol Tetrac/μg protein
same,Calculated tissue concentration of Tetrac,[3]; liver,1.9 fluol Tetrac/μg protein
same,Inhibition of the mRNA levels of monodeiodinase type 2 (in words),[4],clearly less efficient
same,"SERCA 2a mRNA levels, response to increasing doses (in words)",[5],weak response
